The values below come from paper PMC6501426 (Clinical Epigenetics, 2019).

In one test the test system is KG-1. As to the kind of experiment: Cell viability, trypan blue exclusion. As to conditions: Homo sapiens, KG-1; 48 h of treatment; read-out: IC50 ± SD, cell viability, KG-1. The test is classed as cell-based, human. As to the method:
(§1) U-937 (acute myeloid leukemia), RAJI (Burkitt’s lymphoma), PC-3 (prostate cancer), and MDA-MB-231 (breast cancer) cell lines were obtained from the Deutsche Sammlung für Mikroorganismen and Zellkulturen (DSZM, Braunschweig, Germany) and were cultured in RPMI 1640 (Lonza, Verviers, Belgium) complemented with 10% FBS (Lonza, Verviers, Belgium) and 1% antibiotic-antimycotic (Lonza). RPMI1788 (normal B lymphocytes) and KG-1 (acute myeloid leukemia) cell lines were obtained from the American Type Culture Collection (ATCC) and were maintained in RPMI 1640 complemented with 20% FBS and IMDM complemented with 10% FBS, respectively. Cell lines were treated with compounds at the indicated concentrations in the exponential growth phase.
(§2) Proliferation and viability of U-937, KG-1, RAJI, PC-3, MDA-MB-231, RPMI1788, PBMCs, and PHA_PBMCs were assessed by trypan blue exclusion assays at the indicated time points. Nuclear morphology changes associated with apoptosis and necrosis were evaluated by fluorescence microscopy after Hoechst and propidium iodide (PI) staining as previously described.
(§3) IC50 values of compounds against cellular viability were determined by using nonlinear regression fitting curves with GraphPad Prism 8 or CalcuSyn software The t test used for statistical analyses was performed with GraphPad Prism 8. All the tests were one-tailed, and a p value < 0.05 was considered statistically significant.

For another test, the system named is MDA-MB-231. As to the kind of experiment: Cell viability, trypan blue exclusion. Type of test: cell-based, human. Particulars: Homo sapiens, MDA-MB-231; 48 h of treatment; read-out: IC50 ± SD, cell viability, MDA-MB-231. As to the method:
as §1, §2, §3

In the next test the test system is PC-3. Put plainly: Cell viability, trypan blue exclusion. The test is classed as cell-based, human. As to conditions: Homo sapiens, PC-3; 48 h of treatment; read-out: IC50 ± SD, cell viability, PC-3. As to the method: as §1, §2, §3
A further test deals with RAJI. Put plainly: Cell viability, trypan blue exclusion. Type of test: cell-based, human. Particulars: Homo sapiens, Raji; 48 h of treatment; read-out: IC50 ± SD, cell viability, RAJI. As to the method:
as §1, §2, §3

Test [1] deals with RPMI1788 (normal B lymphocytes). As to the kind of experiment: Cell viability, trypan blue exclusion. Type of test: cell-based. As to conditions: Homo sapiens, RPMI-1788; 48 h of treatment; normal cells; read-out: IC50 ± SD, cell viability, RPMI1788. As for the experimental part: as §1, §2
IC50 values of compounds against cellular viability were determined by using nonlinear regression fitting curves with GraphPad Prism 8 or CalcuSyn software The t test used for statistical analyses was performed with GraphPad Prism 8. […]

Test [2] has as its system PBMCs (non-proliferating, healthy donors). As to the kind of experiment: Cell viability, trypan blue exclusion. As to conditions: Homo sapiens, PBMC, 48 h of treatment, read-out: IC50 ± SD, cell viability, PBMCs. Type of test: cell-based. As to the method: Peripheral blood mononuclear cells (PBMCs) from healthy donors were isolated as previously described. Freshly isolated PBMCs were either cultured and treated at 1.10^6 cells/mL (non-proliferating PBMCs) or stimulated with phytohaemoagglutinin (PHA) and interleukin (IL)-2 (called PHA_PBMCs) to induce blastogenesis in T lymphocytes before treatments as previously described. Briefly, freshly isolated PBMCs were seeded at a concentration of 2.10^6 cells/mL in RMPI 1640 supplemented with 1% antibiotic-antimycotic (Lonza, Verviers, Belgium) and 10% human AB serum (Corning, Fisher scientific, Merelbeke, Belgium). After overnight incubation, floating lymphoid cells were collected and seeded at 1.10^6 cells/mL in RMPI 1640 supplemented with 1% antibiotic-antimycotic, 5% FBS, 10% human AB serum, 1 μg/mL PHA (Gentaur, Kampenhout, Belgium), 50 U/mL IL-2 (Roche, Prophac, Luxembourg City, Luxembourg), 1% non-essential amino acids (Invitrogen, Luxembourg), 1% HEPES (Invitrogen, Luxembourg), 1% sodium pyruvate (Invitrogen, Luxembourg), and 0.1% β-mercaptoethanol (Invitrogen, Luxembourg). After 72 h, the cells were seeded at 1.10^6 cells/mL in the same mitogenic growth medium described just above and treated with test compounds.
as §2, §3

Test [3] deals with DNMT3A protein level in HCT116 cells. Put plainly: Western blot of DNMT3A protein in HCT116. The test is classed as cell-based, human. As to conditions: 24 h; MC3353 effect detectable at 0.1 μM. The source says: Cells were lysed in Laemmli buffer; subsequently, the proteins were resolved by sodium dodecyl sulfate-polyacrylamide gel electrophoresis and transferred to a 0.45-μm nitrocellulose membrane (Bio-Rad Laboratories, Hercules, CA). The following primary antibodies were used for immunoblotting: α-E-cadherin (BD Transduction Laboratories, Franklin Lakes, NJ), α-MMP2 (Abcam), α-DNMT3a (Santa Cruz Biotechnologies, Dallas, TX), and α-GAPDH (Millipore Corp., Bedford, MA), used as a loading control. The immune complexes were detected with horseradish peroxidase-conjugated species-specific secondary antiserum (Bio-Rad Laboratories, Milan, Italy) then by enhanced chemiluminescence reaction (Bio-Rad Laboratories, Milan, Italy). Densitometric analysis of protein expression was performed by using the Fiji ImageJ image processing package.
GAPDH was used as a loading control. Blots are representative of two independent experiments

Take `Cc1cc(Nc2ccc(NC(=O)c3ccc(Nc4ccnc5ccccc45)cc3)cc2)nc(N)n1` [SGI-1027, reference compound]: the IC50 amounted to 3.6 ± 0.6 µM with KG-1; 8.5 ± 7.2 µM with MDA-MB-231; 5 ± 0.6 µM in the test on PC-3; 7.8 ± 0.7 µM with RAJI; 6.7 ± 1.3 µM in test [1]; 18.1 ± 6.8 µM in test [2]. The “DNMT3A protein expression level (western blot), HCT116” value in test [3] is given as “moderate effect on DNMT3A expression level”.

What is called IC50 is the concentration that gives 50% inhibition.
